Data on 8 molecules can be found in ChEMBL document CHEMBL4261654, “Synthesis and in vitro antitumor activity of novel alkenyl derivatives of pyridoxine, bioisosteric analogs of feruloyl methane” (Bioorg Med Chem, 2018).

Activity calls are given as the source filed them. The calls are words filed in the database; no cut-off is given here.

Series [1] relates to MCF7. The experiment in a line: Antiproliferative activity against human MCF7 cells after 72 hrs by MTT assay. Format: functional, cell-based. Particulars: MCF7, 72 h. (Tetrazolium assays rely on reduction of a dye to a coloured formazan, in cell work by metabolically active cells.)
For a further series, the system named is HEK293. In words: Antiproliferative activity against human HEK293 cells after 72 hrs by MTT assay. In kind it is cell-based. The following applies: HEK293, 72 h.
Series [2] can be described thus: Antioxidant activity assessed as ferric ion reducing activity at 20 to 320 umol after 20 mins by FRAP assay. Format: functional.
Series [3] deals with MDA-MB-231. In words: Potency index, ratio of compound IC50 to dehydrozingerone IC50 for antiproliferative activity against human MDA-MB-231 cells. In kind it is functional.
Series [4] has as its system A498. The experiment in a line: Antiproliferative activity against human A498 cells after 72 hrs by MTT assay. Format: functional, cell-based. The following applies: A498, 72 h.
Series [5] deals with SNB-19. The experiment in a line: Potency index, ratio of compound IC50 to dehydrozingerone IC50 for antiproliferative activity against human SNB19 cells. Format: functional.
Series [6] relates to HCT-116. In words: Antiproliferative activity against human HCT116 cells after 72 hrs by MTT assay. Format: functional, cell-based. Particulars: HCT-116, 72 h.
Series [7] deals with MDA-MB-231. The experiment in a line: Antiproliferative activity against human MDA-MB-231 cells after 72 hrs by MTT assay. In kind it is functional, cell-based. The following applies: MDA-MB-231, 72 h.
In series [8] the test system is SNB-19. In words: Antiproliferative activity against human SNB19 cells after 72 hrs by MTT assay. Particulars: SNB-19, 72 h. Format: functional, cell-based.
Series [9] has as its system NCI-H322M. The experiment in a line: Antiproliferative activity against human NCI-H322M cells after 72 hrs by MTT assay. Format: functional, cell-based.
Series [10] can be described thus: Ratio of compound IC50 to dehydrozingerone IC50 for antiproliferative activity against HSF cells. The following applies: human, read-out: Ratio IC50. Format: cell-based.
For series [11], the system named is OVCAR-4. In words: Antiproliferative activity against human OVCAR4 cells after 72 hrs by MTT assay. Format: functional, cell-based. The following applies: OVCAR-4, 72 h.
The test system of series [12] is NCI-H322M. The experiment in a line: Potency index, ratio of compound IC50 to dehydrozingerone IC50 for antiproliferative activity against human NCI-H322M cells. Format: functional.
For series [13], the system named is M14. In words: Antiproliferative activity against human M14 cells after 72 hrs by MTT assay. Particulars: M14, 72 h. In kind it is functional, cell-based.
In series [14] the test system is M14. In words: Potency index, ratio of compound IC50 to dehydrozingerone IC50 for antiproliferative activity against human M14 cells. Format: functional.
Series [15] can be described thus: Antiproliferative activity against HSF cells after 72 hrs by MTT assay. Format: cell-based. Particulars: Homo sapiens.
Series [16] relates to HCT-15. In words: Potency index, ratio of compound IC50 to dehydrozingerone IC50 for antiproliferative activity against human HCT15 cells. Format: functional.
Series [17] concerns HCT-15. In words: Antiproliferative activity against human HCT15 cells after 72 hrs by MTT assay. Format: functional, cell-based. The following applies: HCT-15, 72 h.
The test system of series [18] is MCF7. In words: Potency index, ratio of compound IC50 to dehydrozingerone IC50 for antiproliferative activity against human MCF7 cells. In kind it is functional.
Series [19] relates to PC-3. The experiment in a line: Potency index, ratio of compound IC50 to dehydrozingerone IC50 for antiproliferative activity against human PC3 cells. Format: functional.
The subject of series [20] is PC-3. The experiment in a line: Antiproliferative activity against human PC3 cells after 72 hrs by MTT assay. Particulars: PC-3, 72 h. In kind it is functional, cell-based.
A short description of series [21]: Selectivity index, ratio of IC50 for HSF cells to IC50 for human MCF7 cells. Format: toxicity. Particulars: HSF cells versus MCF7 cells, read-out: Ratio IC50.
The subject of series [22] is HCT-116. The experiment in a line: Potency index, ratio of compound IC50 to dehydrozingerone IC50 for antiproliferative activity against human HCT116 cells. In kind it is functional.
The subject of series [23] is OVCAR-4. In words: Potency index, ratio of compound IC50 to dehydrozingerone IC50 for antiproliferative activity against human OVCAR4 cells. Format: functional.
Series [24] concerns A498. In words: Potency index, ratio of compound IC50 to dehydrozingerone IC50 for antiproliferative activity against human A498 cells. In kind it is functional.

The IC50 is the point on the concentration scale where inhibition reaches its midpoint. Lower therefore signals greater potency.

With `CCCC1OCc2c(/C=C/C(C)=O)nc(C)c(O)c2CO1` (stereo not drawn), the values for the IC50 with MCF7 [1] and with HEK293 were 4.6 µM and 13 µM, respectively.

With `CCCC1OCc2c(/C=C/C(C)=O)cnc(C)c2O1` (stereo not drawn), the IC50 is 2.2 µM in the series on MCF7 [1] and 2.9 µM with HEK293.

`CC(=O)/C=C/c1nc(C)c(O)c2c1COC(C)(C)OC2`: the IC50 in the series with MCF7 [1] turned out to be 27 µM; in the series on HEK293 it was 38 µM.

With `CCCCCCCCCC(C)C1OCc2c(/C=C/C(C)=O)nc(C)c(O)c2CO1` (stereo not drawn), the IC50 with MCF7 [1] is 2.9 µM; in the series on HEK293, 1.4 µM.

For the molecule `CC(=O)/C=C/c1cnc(C)c(O)c1CO`, the IC50 with MCF7 [1] is 398 µM; in the series on HEK293 it was 121 µM.

Regarding `CCCCCCCCCC(C)C1OCc2c(/C=C/C(C)=O)cnc(C)c2O1` (stereo not drawn), the IC50 in the series on MCF7 [1] is 2.4 µM; with HEK293 it was 7 µM.

Consider `COc1cc(/C=C/C(=O)CC(=O)/C=C/c2ccc(O)c(OC)c2)ccc1O`, for which the outcome in series [2] was Active.

With `CCC1OCc2c(/C=C/C(C)=O)cnc(C)c2O1` (stereo not drawn), the “Ratio IC50” value in the series with MDA-MB-231 [3], in the series on SNB-19 [5], with NCI-H322M [12], with M14 [14], with HCT-15 [16] and in the series with MCF7 [18] was 7 - 211 each time. Further, the “Ratio IC50” value with PC-3 [19], in the series with HCT-116 [22], in the series with OVCAR-4 [23] and in the series on A498 [24] was 7 - 211 in each case. The concentration for half-maximal inhibition (IC50) is 17 µM with A498 [4]; 4.1 µM in the series on HCT-116 [6]; 3.1 µM in the series with MDA-MB-231 [7]; 6.7 µM in the series with SNB-19 [8]; 10.6 µM in the series with NCI-H322M [9]; 23.6 µM with OVCAR-4 [11]. Further, the IC50 in the series on M14 [13] was 9.7 µM; with MCF7 [1], 3.9 µM; in [15], 18.9 µM; in the series on HCT-15 [17], 2.1 µM; with HEK293, 36 µM; with PC-3 [20], 8.8 µM. For the same molecule, the results for the selectivity ratio in series [10] and in [21] were 7 to 211 and 4.8, respectively. In series [2], the outcome was inactive.
